In assay [1] the test system is STAT5 phosphorylation in lymphocytes. As to the kind of experiment: STAT5 phosphorylation in lymphocytes by flow cytometry after administration in mice. It counts as in vivo. An excerpt: Conventional approaches, such as those involving radiolabeling a compound, administering it in vivo, and determining its clearance, may be used to determine whether a compound proposed to be a long-acting IL-2Rβ biased agonist is “long-acting”. For the purposes herein, the long-acting nature of an IL-2Rβ biased agonist is typically determined using flow cytometry to measure STAT5 phosphorylation in lymphocytes at various time points after administration of the agonist to be evaluated in mice.
A general note: A flow cytometer gives signals particle by particle.

Assay [2] has as its system B16F10 mouse melanoma tumors. As to the kind of experiment: Immune cells in tumor microenvironment by flow cytometry, subcutaneous B16F10 melanoma. It counts as in vivo, mice.

The values below come from patent publication US12054553B2, “Immunotherapeutic tumor treatment method” (Nektar Therapeutics, priority 2017, dated 2024).

With “aldesleukin: clinically available IL-2 (aldesleukin), unmodified recombinant IL-2”, the “time by which STAT5 phosphorylation signal is lost” value in assay [1] is given as “around 24 hours”. The “activated natural killer (NK) cells” value in assay [2] (5 and 7 days after treatment initiation) was “increased”. Besides, in assay [2] (by day 7, single dose RSLAIL-2 or 5 doses aldesleukin), the “ratio of CD8/Treg in the tumor” value is on record as 18. The “total and memory CD8 cells as percentage of tumor-infiltrating lymphocytes” value in assay [2] (relative to vehicle) was “increased as a percentage of tumor-infiltrating lymphocytes; however, these effects were transient”. For the same substance, in assay [2] (single dose RSLAIL-2 or 5 doses aldesleukin), the “percentage of Tregs (FoxP3+ subset of CD4 cells) in tumor” value is reported as “modest achieving significance on day 5”.
